According to US20060160897A1, “Topical Use of Valproic Acid for the Prevention or Treatment of Skin Disorders” (priority 2003, published 2006):

Tests used:
inflammatory cytokines [1] = assay: Semiquantitative RT-PCR of cytokine mRNA, LPS stimulated keratinocytes; assay type: cell-based, human; settings: HaCaT, 200 nM TSA or 5 mM VPA 4 hours, then LPS 100 ng/ml 24 hours, FIG. 12A
Method: Human immortalized keratinocytes (HaCaT cells) were seeded at a density of 2.5 million cells per ml into 75 cm^2 flasks. […] After 24 hours at 37° C. cells were lysed and total RNA was isolated using the RNeasy mini kit from Qiagen.
(§1) One microgram of total RNA was transcribed to cDNA by standard methods using reverse transcriptase and an oligo-dT primer (Invitrogen). For semiquantitative PCR, 2 μl of cDNA was amplified by PCR using specific primers. Primers for PCR were synthesized by MWG and are as follows: […]

inflammatory cytokines [2] = assay: Semiquantitative RT-PCR of cytokine mRNA, PMA/Ion stimulated peripheral blood lymphocytes; assay type: cell-based, human; settings: for cytokine expression (mRNA): PMA/Ion stimulation, FIG. 13 A and B
Method: (§2) Monocyte and macrophage depleted peripheral blood mononuclear cells were obtained from consenting adults via separation using Ficoll-Hypaque. The peripheral blood mononuclear cells (PBMC) fraction was washed and seeded in 9 cm petri dishes. After an incubation of 2 hours at 37° C. to remove most of the monocytes, macrophages, and B-cells, the non-adherent cells were collected and cultured in 175 cm^2 flasks for 2 days. Cells were harvested and adjusted to 3 million cells per ml. Aliquots of 500 μl were transferred to each well of 24-well flat bottom plates. Peripheral blood lymphocytes (PBL's) were treated with various concentrations of HDAC inhibitors as indicated. After a 2 hours incubation time at 37° C. cells were stimulated with phorbol 12-myristate 13-acetate (PMA)/ionomycin (Ion) or activated via T cell receptor (TCR/CD3) complex with 10 μg/ml anti-CD3 mAb (OKT3) and 2.5 μg/ml anti-CD28 mAb. After 24 hours at 37° C. the supernatant was removed and frozen for cytokine assays. Cell pellets were lysed and total RNA was isolated using the RNeasy mini kit from Qiagen.
as §1

PPARδ = settings: cited from earlier work
F9 cells = settings: cited from earlier work
IL-2 and TNF-α = IL-2 and TNF-α ELISA, supernatants of stimulated peripheral blood lymphocytes; assay type: cell-based, human; settings: PBLs, FIG. 15; for concentration at which inhibition of IL-2 and TNF-α expression was maximal: CD3/CD28; for IL-2 secretion, dose-response / TNF-α secretion, dose-response: increasing concentrations two hours, CD3 and CD28 mAbs 24 hours
Method: as §2
To perform ELISAs, supernatants of treated and untreated PBL's were collected and IL-2 as well as TNF-α were measured using the Duo Set ELISA Development System (R&D Systems) as described by the manufacturer.

[3] = tested on: stage III/IV non-small cell lung cancer; settings: monotherapy, phase II (Keer et al., 2002); cited from earlier work
T-cell lymphomas = settings: phase II trial (Piekarz et al., 2001); cited from earlier work
HaCaT cells [4] = assay: MTT assay, growth of human immortalized keratinocytes; assay type: cell-based
Method: MTT assay: This calorimetric assay detects the formation of formazan which is proportional to the number of cells present. Tissue culture medium containing drugs was removed and 200 μl of DME containing 2 mg/ml MTT ((3-4, 5-dimethyl thiazol-2yl) 2,5-diphenyltetrazolium bromide) was added to each well. 96-well plates were incubated at 37 ° C., and 10% CO2 for 30 minutes. Medium containing MTT was then removed and the cells were washed once with PBS. Following removal of the PBS, 200 μL DMSO was added to each well and plates were placed on a rotating platform shaker for 5 minutes. Results were obtained by reading the absorbance at a wavelength of 550 nm using a spectrophotometer. Results are expressed as percentages setting the control as 100%.
FIG. 1 graphically depicts the results of growth assays performed on human immortalized keratinocytes (HaCaT cells), treated for three days with the indicated compounds. Drugs were added on the same day of plating (day 0). The MTT assay (to measure cell proliferation) was carried out on day 3. Various combinations of the drugs were used in the growth assays.
Cells were plated in wells on day 0. […] The MTT assay was carried out on day 3. Various combinations of the drugs were also used in the growth assays. […] Thus, the combinatorial activity of these two drugs must be explained via synergistic activity of this treatment.
Drugs were added on the same day of plating (day 0). The MTT assay (to measure cell proliferation) was carried out on the third day. […] Thus, this combinatorial activity of these two drugs must be explained via synergistic activity of this treatment.

HaCaT cells [5] = assay: Apoptosis assay, flow cytometry of Sub-G1 DNA containing cells; assay type: cell-based, human; settings: drugs day 1, assay day 2, combinations VPA 1 mM + Tazarotene 1 or 2 μM, FIG. 5
Method: Apoptosis assays: Apoptosis was measured by a Beckton Dickinson FACScalibur flow cytometer by analysing the percentage of Sub-G1 DNA containing cells. 10000 events were recorded for each sample. The amplification scale was linear for all parameters. Photomultiplier tension was set as to place the peak DNA content corresponding cells in G0/G1 at channel 300 in the FL2-H vs SCC—H graphs. Cells showing a less than peak DNA content (hypodiploid cells) and high SSC—H (granular high condensed cells) were regarded as apoptotic. The experiments were repeated three times in duplicate. Error bars represent 1 standard deviation.
Cells were plated in 35 mm diameter wells on day 0. Drugs were added on day 1. The apoptosis assay was carried out on day 2. […] Thus, the combinatorial activity of these two drugs must be explained via synergistic activity of this treatment.

Basal Cell Carcinoma [6] = assay: Topical treatment of BCC patients with Tazarotene and VPA; assay type: in vivo, human; settings: 4 lesions pre-treated with Tazarotene alone for at least 16-20 weeks
Method: 10 lesions were treated: 8 Superficial BCCs and 2 pigmented BCC. […] Lesions were evaluated clinically and photographed every two weeks.

Basal Cell Carcinoma [7] = settings: Tazarotene used alone; cited from earlier work
[8] = tested on: acute promyelocytic leukemia; settings: one PML-RAR patient with multiple relapses after retinoic acid (Warrell et al., 1998); cited from earlier work
[9] = vs untreated stimulated control
[10] = PBLs preincubated 2 hours, PMA/Ion 24 hours, FIGS. 12B, 13

Molecule: CC(/C=C/C(=O)NO)=C\[C@@H](C)C(=O)c1ccc(N(C)C)cc1 [TSA, trichostatin A]
- IFN-γ mRNA transcript (inflammatory cytokines [1]): virtually unaffected
- IL-6 mRNA level (inflammatory cytokines [1]; [9]): significant decrease
- TNF-α mRNA level (inflammatory cytokines [1]; [9]): significant decrease
- IL-4 mRNA transcripts (inflammatory cytokines [2]; [10]): significantly reduced
- IL-6 mRNA transcripts (inflammatory cytokines [2]; [10]): only moderate effects
- PPARδ activation (PPARδ): activates
- F9 cell differentiation (F9 cells): induces the same type of F9 cell differentiation as VPA

Molecule: O=C(/C=C/C1CCCCC1)NO [G2M-707]
- cytokine expression (mRNA) (inflammatory cytokines [2]): can modulate cytokine expression
- concentration at which inhibition of IL-2 and TNF-α expression was maximal (IL-2 and TNF-α): 1 µM
- IL-2 secretion, dose-response (IL-2 and TNF-α): dose-dependent inhibition
- TNF-α secretion, dose-response (IL-2 and TNF-α): dose-dependent inhibition

Molecule: CCCC(=O)OCOC(=O)C(C)(C)C [Pivanex, Pivaloyloxymethyl butyrate]
- clinical activity [3]: demonstrating activity

Molecule: C/C=C1\NC(=O)[C@H]2CSSCC/C=C/[C@H](CC(=O)N[C@H](C(C)C)C(=O)N2)OC(=O)[C@H](C(C)C)NC1=O [depsipeptide]
- clinical outcome (T-cell lymphomas): used successfully

Molecule: CCOC(=O)c1ccc(C#Cc2ccc3c(c2)C(C)(C)CCS3)nc1 [Tazarotene]
- cell growth (MTT assay) (HaCaT cells [4]; treated three days, MTT on day 3, combinations VPA 1 mM + Tazarotene 1 or 2 μM, FIG. 1): inhibited cell growth
- apoptosis (Sub-G1 DNA containing cells) (HaCaT cells [5]): induces apoptosis
- tumor diameter under Tazarotene alone (Basal Cell Carcinoma [6]): no reduction of tumor diameter
- share of BCC's in which regression is induced (Basal Cell Carcinoma [7]): ~50%
- side effects (such as pain and itching) (Basal Cell Carcinoma [7]): several unwanted side effects
- time to regression (Basal Cell Carcinoma [7]): 12-24 weeks

Molecule: O=C(CCC1CCCC1)NO [G2M-701]
- cytokine expression (mRNA) (inflammatory cytokines [2]): can modulate cytokine expression
- concentration at which inhibition of IL-2 and TNF-α expression was maximal (IL-2 and TNF-α): 6 µM
- IL-2 secretion, dose-response (IL-2 and TNF-α): dose-dependent inhibition
- TNF-α secretion, dose-response (IL-2 and TNF-α): dose-dependent inhibition

Molecule: phenylbutyrate
- clinical outcome of leukemia [8]: complete remission of the leukemia

Molecule: O=C(CCC1CCCCC1)NO [G2M-702]
- cytokine expression (mRNA) (inflammatory cytokines [2]): can modulate cytokine expression
- concentration at which inhibition of IL-2 and TNF-α expression was maximal (IL-2 and TNF-α): 3 µM
- IL-2 secretion, dose-response (IL-2 and TNF-α): dose-dependent inhibition
- TNF-α secretion, dose-response (IL-2 and TNF-α): dose-dependent inhibition

Molecule: O=C(CCCCCCC(=O)Nc1ccccc1)NO [SAHA, suberoylanilide hydroxamic acid]
- cytokine expression (mRNA) (inflammatory cytokines [2]): can modulate cytokine expression

Molecule: O=c1[nH]cc(F)c(=O)[nH]1 [5-FU, 5-Fluorouracil]
- cell growth (MTT assay) (HaCaT cells [4]; MTT on the third day, 5 μM or 10 μM 5-FU and 1 mM VPA, FIG. 3): inhibited growth
